# Assay results taken from article PMC5218480 (PLoS ONE, 2017).
# Test system: MV-4-11 cells
# Assay: Gene expression microarray analysis (Affymetrix PrimeView) and GSEA
# Type: cell-based, human
# Design: RFU PODN (11730768_x_at) / Fold change /veh PODN (11730768_x_at) / RFU LINC00158 (11744669_a_at) / Fold change /veh LINC00158 (11744669_a_at) / RFU DUSP10 (11751237_a_at) / Fold change /veh DUSP10 (11751237_a_at) / RFU ID3 (11757404_x_at) / Fold change /veh ID3 (11757404_x_at) / RFU PLEKHG5 (11737974_s_at) / Fold change /veh PLEKHG5 (11737974_s_at) / RFU LRRC4B (11730491_at) / Fold change /veh LRRC4B (11730491_at) / RFU GIMAP4 (11747438_a_at) / Fold change /veh GIMAP4 (11747438_a_at) / RFU KRT8 (11758183_x_at) / Fold change /veh KRT8 (11758183_x_at) / RFU CNN1 (11734310_a_at) / Fold change /veh CNN1 (11734310_a_at) / RFU VPS37D (11726825_at) / Fold change /veh VPS37D (11726825_at) / RFU C10orf10 (11716522_x_at) / Fold change /veh C10orf10 (11716522_x_at) / RFU KIR2DL2 /// KIR2DL4 /// KIR2DL5A /// KIR2DL5B /// KIR2DS1 /// KIR2DS2 /// KIR2DS3 /// KIR2DS4 /// KIR3DL3 /// KIR3DL3 /// KIR3DS1 (11738374_at) / Fold change /veh KIR2DL2 /// KIR2DL4 /// KIR2DL5A /// KIR2DL5B /// KIR2DS1 /// KIR2DS2 /// KIR2DS3 /// KIR2DS4 /// KIR3DL3 /// KIR3DL3 /// KIR3DS1 (11738374_at) / RFU C1QL1 (11718748_at) / Fold change /veh C1QL1 (11718748_at) / RFU TMPRSS4 (11747572_a_at) / Fold change /veh TMPRSS4 (11747572_a_at) / RFU HAMP (11756126_x_at) / Fold change /veh HAMP (11756126_x_at) / RFU RNFT2 (11725882_a_at) / Fold change /veh RNFT2 (11725882_a_at) / RFU NR4A2 (11747474_a_at) / Fold change /veh NR4A2 (11747474_a_at) / RFU ABCC12 (11746883_a_at) / Fold change /veh ABCC12 (11746883_a_at) / RFU TMEM136 (11760407_x_at) / Fold change /veh TMEM136 (11760407_x_at) / RFU CLDN22 /// WWC2 (11732394_at) / Fold change /veh CLDN22 /// WWC2 (11732394_at) / RFU HLA-DPB1 (11760878_x_at) / Fold change /veh HLA-DPB1 (11760878_x_at) / RFU SPINT1 (11716480_a_at) / Fold change /veh SPINT1 (11716480_a_at) / RFU GAP43 (11754022_s_at) / Fold change /veh GAP43 (11754022_s_at) / RFU A4GNT (11735810_at) / Fold change /veh A4GNT (11735810_at) / RFU PRB3 (11715151_x_at) / Fold change /veh PRB3 (11715151_x_at) / RFU TUBB4B (11761932_at) / Fold change /veh TUBB4B (11761932_at) / RFU CAPN14 (11732068_a_at) / Fold change /veh CAPN14 (11732068_a_at) / RFU TMCC2 (11721928_a_at) / Fold change /veh TMCC2 (11721928_a_at) / RFU IRGQ (11745062_a_at) / Fold change /veh IRGQ (11745062_a_at) / RFU FAM174B (11720279_a_at) / Fold change /veh FAM174B (11720279_a_at) / RFU TMPRSS4 (11748680_a_at) / Fold change /veh TMPRSS4 (11748680_a_at) / RFU FAM212B (11763350_a_at) / Fold change /veh FAM212B (11763350_a_at) / RFU PLEKHG5 (11743358_a_at) / Fold change /veh PLEKHG5 (11743358_a_at) / RFU ZSCAN30 (11745921_a_at) / Fold change /veh ZSCAN30 (11745921_a_at) / RFU CMKLR1 (11741424_a_at) / Fold change /veh CMKLR1 (11741424_a_at) / RFU LOC101060620 /// MAPK8IP1 (11723275_at) / Fold change /veh LOC101060620 /// MAPK8IP1 (11723275_at) / RFU SPTSSB (11747773_x_at) / Fold change /veh SPTSSB (11747773_x_at) / RFU PRSS12 (11739890_at) / Fold change /veh PRSS12 (11739890_at) / RFU BIN1 (11741810_x_at) / Fold change /veh BIN1 (11741810_x_at) / RFU WNT11 (11732464_a_at) / Fold change /veh WNT11 (11732464_a_at) / RFU C10orf10 (11716521_a_at) / Fold change /veh C10orf10 (11716521_a_at) / RFU C5orf56 (11738089_at) / Fold change /veh C5orf56 (11738089_at) / RFU CYB561 (11721691_x_at) / Fold change /veh CYB561 (11721691_x_at) / RFU ANKRD19P (11752326_a_at) / Fold change /veh ANKRD19P (11752326_a_at) / RFU OR2T12 /// OR2T33 /// OR2T8 (11738714_s_at) / Fold change /veh OR2T12 /// OR2T33 /// OR2T8 (11738714_s_at) / RFU VCAN (11748164_a_at) / Fold change /veh VCAN (11748164_a_at) / RFU JSRP1 (11732532_at) / Fold change /veh JSRP1 (11732532_at) / RFU KRTAP10-11 (11738290_x_at) / Fold change /veh KRTAP10-11 (11738290_x_at) / RFU MYO3A (11730013_a_at) / Fold change /veh MYO3A (11730013_a_at) / RFU EBF3 (11725865_a_at) / Fold change /veh EBF3 (11725865_a_at) / RFU CAMK2N1 (11719241_x_at) / Fold change /veh CAMK2N1 (11719241_x_at) / RFU C5orf56 (11738088_a_at) / Fold change /veh C5orf56 (11738088_a_at) / RFU OLFML3 (11715873_a_at) / Fold change /veh OLFML3 (11715873_a_at) / RFU LOC100653217 /// NTM (11731650_a_at) / Fold change /veh LOC100653217 /// NTM (11731650_a_at) / RFU MAPK11 (11762145_a_at) / Fold change /veh MAPK11 (11762145_a_at) / RFU FIZ1 (11724087_x_at) / Fold change /veh FIZ1 (11724087_x_at) / RFU OASL (11726364_x_at) / Fold change /veh OASL (11726364_x_at) / RFU SOX15 (11748057_x_at) / Fold change /veh SOX15 (11748057_x_at) / RFU CD79A (11719716_a_at) / Fold change /veh CD79A (11719716_a_at) / RFU HIST1H1D (11736915_at) / Fold change /veh HIST1H1D (11736915_at) / RFU CASKIN2 (11723855_a_at) / Fold change /veh CASKIN2 (11723855_a_at) / RFU LOC730098 (11760151_x_at) / Fold change /veh LOC730098 (11760151_x_at) / RFU OR4N2 (11742367_at) / Fold change /veh OR4N2 (11742367_at) / RFU PRRT2 (11749266_a_at) / Fold change /veh PRRT2 (11749266_a_at) / RFU SNX32 (11753110_a_at) / Fold change /veh SNX32 (11753110_a_at) / RFU CDHR5 (11726645_a_at) / Fold change /veh CDHR5 (11726645_a_at) / RFU RCAN1 (11760418_a_at) / Fold change /veh RCAN1 (11760418_a_at) / RFU FAM167A (11723789_a_at) / Fold change /veh FAM167A (11723789_a_at) / RFU FAM26E (11764081_at) / Fold change /veh FAM26E (11764081_at) / RFU ISYNA1 (11749810_s_at) / Fold change /veh ISYNA1 (11749810_s_at) / RFU ACY1 (11761880_at) / Fold change /veh ACY1 (11761880_at) / RFU 11764098_at / Fold change /veh 11764098_at / RFU SAMD14 (11745864_x_at) / Fold change /veh SAMD14 (11745864_x_at) / RFU NPB (11741838_a_at) / Fold change /veh NPB (11741838_a_at) / RFU TMPRSS6 (11731388_a_at) / Fold change /veh TMPRSS6 (11731388_a_at) / RFU KRTAP10-2 (11738614_at) / Fold change /veh KRTAP10-2 (11738614_at) / RFU ARHGAP8 /// PRR5-ARHGAP8 (11727945_x_at) / Fold change /veh ARHGAP8 /// PRR5-ARHGAP8 (11727945_x_at) / RFU KRTAP5-7 /// NADSYN1 (11734609_at) / Fold change /veh KRTAP5-7 /// NADSYN1 (11734609_at) / RFU RASL12 (11751679_a_at) / Fold change /veh RASL12 (11751679_a_at) / RFU CDKN2B (11736163_a_at) / Fold change /veh CDKN2B (11736163_a_at) / RFU PRF1 (11729649_at) / Fold change /veh PRF1 (11729649_at) / RFU, ZNF638 /// ZNF638-IT1 / Fold change vs veh, ZNF638 /// ZNF638-IT1 / RFU, PANK3 / Fold change vs veh, PANK3 / RFU, SH3YL1 / Fold change vs veh, SH3YL1 / RFU, ZEB2 / Fold change vs veh, ZEB2 / RFU, NRIP1 / Fold change vs veh, NRIP1 / RFU, PTTG1IP / Fold change vs veh, PTTG1IP / RFU, CAPN2 / Fold change vs veh, CAPN2 / RFU, MED14 / Fold change vs veh, MED14 / RFU, SNORA58 / Fold change vs veh, SNORA58 / RFU, C1orf63 / Fold change vs veh, C1orf63 / RFU, LRRFIP1 / Fold change vs veh, LRRFIP1 / RFU, NDUFAF7 / Fold change vs veh, NDUFAF7 / RFU, SLC12A2 / Fold change vs veh, SLC12A2 / RFU, IBTK / Fold change vs veh, IBTK / RFU, ESF1 / Fold change vs veh, ESF1 / Fold change vs veh, TMEM50B / RFU, TAOK1 / Fold change vs veh, TAOK1 / RFU, ACBD3 / Fold change vs veh, ACBD3 / RFU, TMA16 / Fold change vs veh, TMA16 / RFU, RWDD3 / Fold change vs veh, RWDD3 / RFU, BCAT1 / Fold change vs veh, BCAT1 / RFU, EDEM3 / Fold change vs veh, EDEM3 / RFU, TMEM33 / Fold change vs veh, TMEM33 / RFU, WDR75 / Fold change vs veh, WDR75 / RFU, AHCTF1 / Fold change vs veh, AHCTF1 / RFU, TFRC / Fold change vs veh, TFRC / RFU, ZDHHC17 / Fold change vs veh, ZDHHC17 / RFU, NOM1 / Fold change vs veh, NOM1 / RFU, ARL8B / Fold change vs veh, ARL8B / RFU, ZBTB11 / Fold change vs veh, ZBTB11 / RFU, TAMM41 / Fold change vs veh, TAMM41 / RFU, KIAA1704 /// LOC100996395 / Fold change vs veh, KIAA1704 /// LOC100996395 / RFU, ING1 / Fold change vs veh, ING1 / RFU, TRMT61B / Fold change vs veh, TRMT61B / RFU, FUBP3 / Fold change vs veh, FUBP3 / RFU, TP53 / Fold change vs veh, TP53 / RFU, TNKS2 / Fold change vs veh, TNKS2 / RFU, ZFP14 / Fold change vs veh, ZFP14 / RFU, ACTR2 / Fold change vs veh, ACTR2 / RFU, PPP3R1 / Fold change vs veh, PPP3R1 / RFU, PIK3R1 / Fold change vs veh, PIK3R1 / RFU, HNRNPA1 / Fold change vs veh, HNRNPA1 / RFU, RNF170 / Fold change vs veh, RNF170 / RFU, ZNF28 / Fold change vs veh, ZNF28 / RFU, RNGTT / Fold change vs veh, RNGTT / RFU, OGT / Fold change vs veh, OGT / RFU, BRD1 / Fold change vs veh, BRD1 / RFU, MARS / Fold change vs veh, MARS / RFU, ZNF655 / Fold change vs veh, ZNF655 / RFU, FAHD1 / Fold change vs veh, FAHD1 / RFU, BDP1 / Fold change vs veh, BDP1 / RFU, LRRCC1 / Fold change vs veh, LRRCC1 / RFU, ARID1A / Fold change vs veh, ARID1A / RFU, ZNF146 / Fold change vs veh, ZNF146 / RFU, ZNF330 / Fold change vs veh, ZNF330 / RFU, GPN3 / Fold change vs veh, GPN3 / RFU, C9orf123 / Fold change vs veh, C9orf123 / RFU, N4BP2L2 / Fold change vs veh, N4BP2L2 / RFU, ARFIP1 / Fold change vs veh, ARFIP1 / RFU, FAM179B / Fold change vs veh, FAM179B / RFU, BCL10 / Fold change vs veh, BCL10 / RFU, UHRF1BP1L / Fold change vs veh, UHRF1BP1L / RFU, BET1 / Fold change vs veh, BET1 / RFU, CNOT2 / Fold change vs veh, CNOT2 / RFU, ZNF268 / Fold change vs veh, ZNF268 / Fold change vs veh, ZNF507 / RFU, DGCR2 / Fold change vs veh, DGCR2 / RFU, WDSUB1 / Fold change vs veh, WDSUB1 / Fold change vs veh, HSP90B1 /// MIR3652 / RFU, ADSS / Fold change vs veh, ADSS / RFU, GK / Fold change vs veh, GK / RFU, ZNF148 / Fold change vs veh, ZNF148 / RFU, TAF9 / Fold change vs veh, TAF9 / RFU, SLC1A5 / Fold change vs veh, SLC1A5 / RFU, SLMO2 / Fold change vs veh, SLMO2 / RFU, ABCC4 / Fold change vs veh, ABCC4 / RFU, LOC101060439 /// RAP1B / Fold change vs veh, LOC101060439 /// RAP1B / RFU, RFX7 / Fold change vs veh, RFX7 / RFU, GTPBP10 / Fold change vs veh, GTPBP10 / RFU, CNEP1R1 / Fold change vs veh, CNEP1R1 / RFU, BIVM-ERCC5 /// ERCC5 / Fold change vs veh, BIVM-ERCC5 /// ERCC5 / RFU, ILF3 / Fold change vs veh, ILF3 / RFU 11762660_at / Fold change /veh 11762660_at / RFU VCAN (11757783_s_at) / Fold change /veh VCAN (11757783_s_at) / RFU DDX43 (11728927_at) / Fold change /veh DDX43 (11728927_at) / RFU KRT8 (11758188_x_at) / Fold change /veh KRT8 (11758188_x_at) / RFU NKD1 (11759106_at) / Fold change /veh NKD1 (11759106_at) / RFU SRD5A1 (11742802_a_at) / Fold change /veh SRD5A1 (11742802_a_at) / RFU TPSAB1 /// TPSB2 (11721975_s_at) / Fold change /veh TPSAB1 /// TPSB2 (11721975_s_at) / RFU GSTM3 (11746129_a_at) / Fold change /veh GSTM3 (11746129_a_at) / RFU IL23R (11737362_x_at) / Fold change /veh IL23R (11737362_x_at) / RFU TMEM51 (11727254_a_at) / Fold change /veh TMEM51 (11727254_a_at) / RFU PIWIL2 (11732686_x_at) / Fold change /veh PIWIL2 (11732686_x_at) / RFU ORM1 (11744905_x_at) / Fold change /veh ORM1 (11744905_x_at) / RFU CCDC152 (11743942_at) / Fold change /veh CCDC152 (11743942_at) / RFU ECM1 (11717891_a_at) / Fold change /veh ECM1 (11717891_a_at) / RFU IL23R (11748794_a_at) / Fold change /veh IL23R (11748794_a_at) / RFU TNFAIP8L3 (11732012_x_at) / Fold change /veh TNFAIP8L3 (11732012_x_at) / RFU MBOAT4 (11741988_at) / Fold change /veh MBOAT4 (11741988_at) / RFU 11764193_at / Fold change /veh 11764193_at / RFU TMEM53 (11763286_at) / Fold change /veh TMEM53 (11763286_at) / RFU MAGEB2 (11727129_at) / Fold change /veh MAGEB2 (11727129_at) / RFU TMEM200A (11744735_a_at) / Fold change /veh TMEM200A (11744735_a_at) / RFU CCDC152 (11751479_a_at) / Fold change /veh CCDC152 (11751479_a_at) / RFU FAM211A (11726209_a_at) / Fold change /veh FAM211A (11726209_a_at) / RFU RGS16 (11746705_a_at) / Fold change /veh RGS16 (11746705_a_at) / RFU VCAN (11755009_s_at) / Fold change /veh VCAN (11755009_s_at) / RFU RHOB (11743442_s_at) / Fold change /veh RHOB (11743442_s_at) / RFU RGS16 (11720943_a_at) / Fold change /veh RGS16 (11720943_a_at) / RFU RGS16 (11720944_at) / Fold change /veh RGS16 (11720944_at) / RFU, VPS4B / Fold change vs veh, VPS4B / RFU, CREB1 / Fold change vs veh, CREB1 / RFU, DNAJC13 / Fold change vs veh, DNAJC13 / RFU, GNAQ / Fold change vs veh, GNAQ / RFU, CDK5R1 / Fold change vs veh, CDK5R1 / RFU, ZRANB3 / Fold change vs veh, ZRANB3 / RFU, CUL4A / Fold change vs veh, CUL4A / RFU, CCNY / Fold change vs veh, CCNY / RFU, UFL1 / Fold change vs veh, UFL1 / RFU, COG3 / Fold change vs veh, COG3 / RFU, DIAPH2 / Fold change vs veh, DIAPH2 / RFU, SKA2 / Fold change vs veh, SKA2 / RFU, AFF3 / Fold change vs veh, AFF3 / RFU, LMF1 / Fold change vs veh, LMF1 / RFU, IPO11 / Fold change vs veh, IPO11 / RFU, DFFB / Fold change vs veh, DFFB / RFU, FOXP1 / Fold change vs veh, FOXP1 / RFU, CARD8 / Fold change vs veh, CARD8 / RFU, STRN3 / Fold change vs veh, STRN3 / RFU, ADK / Fold change vs veh, ADK / RFU, RASSF2 / Fold change vs veh, RASSF2 / RFU, WIPF1 / Fold change vs veh, WIPF1 / RFU, LARP1B / Fold change vs veh, LARP1B / RFU, RASA1 / Fold change vs veh, RASA1 / RFU, RB1 / Fold change vs veh, RB1 / RFU, PPFIA1 / Fold change vs veh, PPFIA1 / RFU, MAT2A / Fold change vs veh, MAT2A / RFU, CCT5 / Fold change vs veh, CCT5 / RFU, WDR92 / Fold change vs veh, WDR92 / RFU, CUX1 / Fold change vs veh, CUX1 / RFU, TTC7A / Fold change vs veh, TTC7A / RFU, TMEM135 / Fold change vs veh, TMEM135 / RFU, DEPTOR / Fold change vs veh, DEPTOR / RFU, CPM / Fold change vs veh, CPM / RFU, DNAJB6 / Fold change vs veh, DNAJB6 / RFU, CACNA2D3 / Fold change vs veh, CACNA2D3 / RFU, DTX4 / Fold change vs veh, DTX4 / RFU, TFCP2 / Fold change vs veh, TFCP2 / RFU, GMCL1 /// GMCL1P1 / Fold change vs veh, GMCL1 /// GMCL1P1 / RFU, AEBP2 / Fold change vs veh, AEBP2 / RFU, SNHG1 /// SNORD22 /// SNORD25 /// SNORD26 /// SNORD27 /// SNORD28 /// SNORD29 /// SNORD31 / Fold change vs veh, SNHG1 /// SNORD22 /// SNORD25 /// SNORD26 /// SNORD27 /// SNORD28 /// SNORD29 /// SNORD31 / Fold change (Aza/veh), C12orf56 (ProbeSet 11735607_a_at) / Fold change (ACY-1035/veh), C12orf56 (ProbeSet 11735607_a_at) / Fold change (Aza/veh), FGFR1OP (ProbeSet 11751329_s_at) / Fold change (ACY-1035/veh), FGFR1OP (ProbeSet 11751329_s_at) / Fold change (Aza/veh), VPS36 (ProbeSet 11739960_a_at) / Fold change (ACY-1035/veh), VPS36 (ProbeSet 11739960_a_at) / RFU SYPL1 (11715823_x_at) / Fold change /veh SYPL1 (11715823_x_at) / RFU IGFBP7 (11715501_s_at) / Fold change /veh IGFBP7 (11715501_s_at) / RFU REEP3 (11722064_at) / Fold change /veh REEP3 (11722064_at) / RFU IGLL1 (11728026_x_at) / Fold change /veh IGLL1 (11728026_x_at): dose or concentration left out as unconfirmed
# Settings: ProbeSet 11722463_a_at; LIST B
structure (smiles),measurement,value
Nc1ncn([C@@H]2O[C@H](CO)[C@@H](O)[C@H]2O)c(=O)n1 [azacitidine],"Fold change vs veh, TNKS2",0.86
